The term IC50 denotes the concentration at which inhibition is half-maximal. Higher therefore signals lower potency.

The structures appear in SMILES notation.

H1047R PIK3CA enzyme, sequence (P42336 whole entry H1047R): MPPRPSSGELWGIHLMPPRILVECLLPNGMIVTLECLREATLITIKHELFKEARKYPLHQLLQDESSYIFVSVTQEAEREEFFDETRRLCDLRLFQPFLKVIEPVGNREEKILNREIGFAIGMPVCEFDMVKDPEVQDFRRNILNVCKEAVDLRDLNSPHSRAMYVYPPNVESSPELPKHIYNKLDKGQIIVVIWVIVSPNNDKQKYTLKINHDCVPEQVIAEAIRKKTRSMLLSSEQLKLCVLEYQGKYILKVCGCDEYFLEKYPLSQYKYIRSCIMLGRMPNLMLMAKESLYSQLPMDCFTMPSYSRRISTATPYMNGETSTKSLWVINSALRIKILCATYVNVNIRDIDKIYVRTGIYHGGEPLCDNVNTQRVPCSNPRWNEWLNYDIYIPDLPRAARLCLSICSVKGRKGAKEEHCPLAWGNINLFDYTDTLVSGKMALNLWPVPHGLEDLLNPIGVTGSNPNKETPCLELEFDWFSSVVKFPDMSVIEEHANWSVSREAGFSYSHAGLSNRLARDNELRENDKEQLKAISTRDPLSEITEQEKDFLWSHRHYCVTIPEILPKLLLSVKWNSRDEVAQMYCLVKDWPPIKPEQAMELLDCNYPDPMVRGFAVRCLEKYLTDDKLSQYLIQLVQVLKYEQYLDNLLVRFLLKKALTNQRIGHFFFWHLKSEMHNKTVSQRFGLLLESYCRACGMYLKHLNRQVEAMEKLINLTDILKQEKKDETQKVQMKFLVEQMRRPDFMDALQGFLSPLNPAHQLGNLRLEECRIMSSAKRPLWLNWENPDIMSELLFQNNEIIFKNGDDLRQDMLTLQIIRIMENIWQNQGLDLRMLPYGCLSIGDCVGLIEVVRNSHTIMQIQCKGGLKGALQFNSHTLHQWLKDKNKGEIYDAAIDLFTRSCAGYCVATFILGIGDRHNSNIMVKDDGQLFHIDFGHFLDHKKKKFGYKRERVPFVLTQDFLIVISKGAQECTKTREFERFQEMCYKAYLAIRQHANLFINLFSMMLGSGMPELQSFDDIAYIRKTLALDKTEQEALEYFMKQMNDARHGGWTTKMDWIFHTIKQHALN
H1047R PIK3CA enzyme, sequence (P27986 whole entry partner): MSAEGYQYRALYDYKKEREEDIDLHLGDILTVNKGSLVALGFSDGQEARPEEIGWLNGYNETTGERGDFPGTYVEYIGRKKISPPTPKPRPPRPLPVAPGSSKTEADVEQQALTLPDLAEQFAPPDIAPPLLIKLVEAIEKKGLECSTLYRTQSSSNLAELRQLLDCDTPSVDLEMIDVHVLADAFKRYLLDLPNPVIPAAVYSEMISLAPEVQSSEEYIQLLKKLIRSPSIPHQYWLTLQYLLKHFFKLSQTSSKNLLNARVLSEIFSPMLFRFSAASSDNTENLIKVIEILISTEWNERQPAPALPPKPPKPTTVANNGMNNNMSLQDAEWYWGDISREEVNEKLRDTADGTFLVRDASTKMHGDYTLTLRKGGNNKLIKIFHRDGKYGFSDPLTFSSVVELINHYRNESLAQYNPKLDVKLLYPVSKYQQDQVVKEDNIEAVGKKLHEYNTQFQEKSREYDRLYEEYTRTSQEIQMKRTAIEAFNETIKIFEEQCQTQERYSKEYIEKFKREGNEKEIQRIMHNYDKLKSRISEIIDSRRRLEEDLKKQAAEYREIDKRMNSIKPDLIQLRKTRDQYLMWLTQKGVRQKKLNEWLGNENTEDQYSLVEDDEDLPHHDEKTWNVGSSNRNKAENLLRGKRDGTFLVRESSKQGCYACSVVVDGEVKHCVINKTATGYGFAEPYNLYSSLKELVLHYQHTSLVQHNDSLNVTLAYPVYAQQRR

This assay has as its target H1047R PIK3CA enzyme (Homo sapiens, UniProt P42336, H1047R). The assay can be described thus: ADP-Glo Biochemical PIK3CA Kinase Assay. On the technique in general: In ADP-Glo the light output rises with the ADP produced.
As for `O=C(O)COc1ncc(-c2cc(NC(=O)c3cc(F)cc(C(F)(F)F)c3)c3c(c2)C(=O)NC3c2cc(F)ccc2Cl)cn1` (stereo not drawn) [Compound I-1390], the IC50 is at most 0.1 µM. The result for `N#Cc1cnc2c(F)cc(-c3cc(NC(=O)c4cc(F)cc(C(F)(F)F)c4)c4c(c3)C(=O)NC4c3cc(F)ccc3Cl)cn12` (stereo not drawn) [Compound I-1797] reads at most 0.1 µM; that for `O=C(Nc1cc(-c2cc3ncnn3cc2F)cc2c1[C@H](c1cc(F)ccc1Cl)NC2=O)c1cc(F)cc(C(F)(F)F)c1` [Compound I-1868], at most 0.1 µM; that for `O=C(Nc1cccc2c1[C@H](C1CCC(F)(F)CC1)NC2=O)c1cc(F)cc(C(F)(F)F)c1` (racemic) [Compound I-1836], 10 to 100 µM. On to `CS(=O)(=O)N1CCC[C@H]1COc1cc(NC(=O)c2cc(F)cc(C(F)(F)F)c2)c2c(c1)C(=O)NC2c1cc(F)ccc1Cl` (single isomer, unassigned) [Compound I-1375], for which the 50% inhibitory concentration (IC50) is at most 0.1 µM. `O=C1NC(c2ccc3ccccc3c2)c2c(NC(=O)c3nsc4ccccc34)cccc21` (stereo not drawn) [Compound I-392] gave an IC50 of 10 to 100 µM. The result for `Nc1cc(C(F)(F)F)cc(C(=O)Nc2cccc3c2C(c2cc(F)ccc2Cl)NC3=O)n1` (stereo not drawn) [Compound I-726] reads 1 to 10 µM; that for `COCCNc1cc(NC(=O)c2cc(F)cc(C(F)(F)F)c2)c2c(n1)C(=O)NC2c1cc(F)ccc1Cl` (stereo not drawn) [Compound I-288], 0.1 to 0.5 µM. In the case of `O=C(Nc1cc(-c2cccc3cccnc23)cc2c1C(c1cc(F)ccc1Cl)NC2=O)c1cc(F)cc(C(F)(F)F)c1` (stereo not drawn) [Compound I-1045] it was at most 0.1 µM.

On to `O=C1NC(c2cc(F)ccc2Cl)c2c(NC(=O)C34CC5CC(CC(F)(C5)C3)C4)cccc21` (stereo not drawn) [Compound I-1133], for which the concentration for half-maximal inhibition (IC50) lay in the range of 0.5 to 1 µM. The result for `CS(=O)(=O)c1cc(NC(=O)c2cc(F)cc(C(F)(F)F)c2)c2c(c1)C(=O)NC2c1cc(F)ccc1Cl` (stereo not drawn) [Compound I-1276] reads at most 0.1 µM; that for `Nc1nc2ccc(-c3cc(NC(=O)c4cc(F)cc(C(F)(F)F)c4)c4c(c3)C(=O)N[C@H]4c3cc(F)ccc3Cl)cn2n1` [Compound I-1445], at most 0.1 µM; that for `Cc1ccccc1C1NC(=O)c2cccc(NC3(c4cc(F)cc(C(F)(F)F)c4)COC3)c21` (stereo not drawn) [Compound I-492], 1 to 10 µM.

Regarding `O=C1NC(c2cc(F)ccc2Cl)c2c(NC(=O)N3CCCc4ccc(Cl)cc43)cc(Br)cc21` (stereo not drawn) [Compound I-992], the IC50 lay in the range of 1 to 10 µM. `O=C1N[C@@H](c2cc(F)ccc2Cl)c2c(NC(=O)N3C[C@H](C(F)F)c4ccccc43)cccc21` (single isomer, unassigned) [Compound I-2332] registered an IC50 of 1 to 10 µM. The result for `O=C1NC(c2cc(F)ccc2Cl)c2c(NC(=O)C3(c4cc(F)ccc4F)CCCC3)cc(Br)cc21` (stereo not drawn) [Compound I-1819] reads 10 to 100 µM. Take `O=C1N[C@H](c2cc(F)ccc2Cl)c2c(NC(=O)N3C[C@](O)(C(F)(F)F)c4cc(F)ccc43)cc(-n3ccccc3=O)cc21` (single isomer, unassigned) [Compound I-2531]: the 50% inhibitory concentration (IC50) was in the range of 1 to 10 µM. Take `O=C1NC(c2cc(F)ccc2Cl)c2c(NC(=S)c3cc(F)cc(C(F)(F)F)c3)cccc21` (stereo not drawn) [Compound I-753]: the IC50 is 0.5 to 1 µM. The result for `O=C1N[C@@H](c2cc(F)ccc2Cl)c2c(NC(=O)N3C[C@@H](O)c4c(F)cccc43)cccc21` (single isomer, unassigned) [Compound I-2144] reads 1 to 10 µM; that for `Cc1ccccc1C1NC(=O)c2c(-c3cnn(C)c3)ncc(NC(=O)c3cc(F)cc(C(F)(F)F)c3)c21` (stereo not drawn) [Compound I-254], 0.1 to 0.5 µM. In turn, `O=C1N[C@@H](c2cc(F)ccc2Cl)c2c(NC(=O)N3C[C@@](O)(C(F)F)c4cc(F)ccc43)cc(Cl)cc21` (single isomer, unassigned) [Compound I-2589] had a 50% inhibitory concentration (IC50) of 1 to 10 µM.

With `O=C(Nc1cc(-c2ccc3ncnn3c2)cc2c1[C@H](c1cc(F)ccc1Cl)NC2=O)c1cc(F)cc(Cl)c1` (stereo in doubt) [Compound I-1165], the IC50 was at most 0.1 µM. In the case of `CC(c1ccccc1O)N(C)C(=O)Nc1cc(Br)cc2c1C(c1cc(F)ccc1Cl)NC2=O` (stereo not drawn) [Compound I-1459] it was 10 to 100 µM.

In the case of `O=C(Nc1cc(Br)cc2c1C(c1cc(F)ccc1Cl)NC2=O)c1cc(F)cc(CC(F)(F)F)c1` (stereo not drawn) [Compound I-1582], the IC50 is 0.5 to 1 µM. The result for `O=C(Nc1cc(OS(=O)(=O)F)cc2c1C(c1cc(F)ccc1Cl)NC2=O)c1cc(F)cc(C(F)(F)F)c1` (stereo not drawn) [Compound I-483] reads at most 0.1 µM; that for `Cc1ccccc1C1NC(=O)c2c(C(O)CO)ccc(NC(=O)c3csc4ccccc34)c21` (stereo not drawn) [Compound I-120], 0.1 to 0.5 µM.

Consider `CSC(C)c1cc(NC(=O)c2cc(F)cc(C(F)(F)F)c2)c2c(c1)C(=O)NC2c1cc(F)ccc1Cl` (racemic) [Compound I-1490], for which the half-maximal inhibitory concentration (IC50) was at most 0.1 µM. In the case of `O=C(Nc1cc(C(O)c2ccccn2)cc2c1C(c1cc(F)ccc1Cl)NC2=O)c1cc(F)cc(C(F)(F)F)c1` (stereo not drawn) [Compound I-1278] it was at most 0.1 µM. In the case of `CN(C)S(=O)(=O)n1nccc1-c1cc(NC(=O)c2cc(F)cc(C(F)(F)F)c2)c2c(c1)C(=O)N[C@@H]2c1cc(F)ccc1Cl` [Compound I-1598], the IC50 is 0.5 to 1 µM.

In the case of `COC1CN(c2cc(NC(=O)c3cc(F)cc(C(F)(F)F)c3)c3c(c2)C(=O)NC3c2cc(F)ccc2Cl)C1` (stereo not drawn) [Compound I-728], the half-maximal inhibitory concentration (IC50) was 0.1 to 0.5 µM. In the case of `CC(C1CCN(C(=O)Nc2cccc3c2C(c2cc(F)ccc2Cl)NC3=O)C1)C(F)(F)F` (mixture of isomers) [Compound I-2421] it was 10 to 100 µM. On to `O=C1C[C@H](c2cc(NC(=O)c3cc(F)cc(C(F)(F)F)c3)c3c(c2)C(=O)N[C@@H]3c2cc(F)ccc2Cl)CN1` (single isomer, unassigned) [Compound I-1711], for which the IC50 fell in the range of 1 to 10 µM. The result for `O=C1NC(c2cc(F)ccc2Cl)c2c(NC(=O)C3CC4(C3)CC(F)(F)C4)cc(Br)cc21` (stereo not drawn) [Compound I-1622] reads 1 to 10 µM; that for `Cn1ccc2ccc(C(=O)Nc3cc(Br)cc4c3C(c3cc(F)ccc3Cl)NC4=O)cc21` (stereo not drawn) [Compound I-668], 1 to 10 µM; that for `O=C1NC(c2cc(F)ccc2Cl)c2c(NC(=O)n3ccc4ccccc43)cc(Br)cc21` (stereo not drawn) [Compound I-1318], at most 0.1 µM. In the case of `N#Cc1cnc2ncc(-c3cc(NC(=O)c4cc(F)cc(C(F)(F)F)c4)c4c(c3)C(=O)N[C@H]4c3cc(F)ccc3Cl)cn12` [Compound I-1859] it was at most 0.1 µM; in that of `O=C1NC(c2cc(F)ccc2Cl)c2c(NC(=O)C3CCCCC3)cccc21` (stereo not drawn) [Compound I-1680], 1 to 10 µM. The result for `O=C(Nc1cc(CN2CCn3cnnc3C2)cc2c1C(c1cc(F)ccc1Cl)NC2=O)c1cc(F)cc(C(F)(F)F)c1` (stereo not drawn) [Compound I-1401] reads at most 0.1 µM; that for `O=C1NC(c2cccnc2Cl)c2c(NC(=O)c3nsc4ccccc34)cccc21` (stereo not drawn) [Compound I-158], 1 to 10 µM.

For the compound `CC(C)(O)COc1cc(NC(=O)c2cc(F)cc(C(F)(F)F)c2)c2c(c1)C(=O)N[C@@H]2c1cc(F)ccc1Cl` [Compound I-739], the half-inhibitory concentration (IC50) lay in the range of 1 to 10 µM. Regarding `Cc1nn(C)c(C)c1-c1cc(NC(=O)c2cc(F)cc(Cl)c2)c2c(n1)C(=O)NC2c1cc(F)ccc1Cl` (stereo not drawn) [Compound I-410], the 50% inhibitory concentration (IC50) was 0.5 to 1 µM. The result for `Cn1nccc1Nc1cc(NC(=O)c2cc(F)cc(C(F)(F)F)c2)c2c(c1)C(=O)N[C@@H]2c1cc(F)ccc1Cl` [Compound I-1145] reads 1 to 10 µM.

(Values after US12581252B2, “Substituted pyrrolo[3,4-b]pyridines as PI3K-α inhibitors” (Relay Therapeutics, Inc., priority 2020, dated 2026).)
